Experimental data: patent US20260022142A1, “MACROCYCLIC IMMUNOMODULATORS” (Bristol-Myers Squibb Company, priority 2022, published 2026)
Bridge positions count the residues as written; N and C are the ends. Square brackets hold non-standard residues; d marks the D form. Peptide text beside a SMILES is read from it. * marks the point of attachment. ξ: configuration not given here. Phe(4-CONH2) = NC(=O)c1ccc(C[C@H](N)C(=O)O)cc1; Phe(4-COOH) = N[C@@H](Cc1ccc(C(=O)O)cc1)C(=O)O; Bip = N[C@@H](Cc1ccc(-c2ccccc2)cc1)C(=O)O; Phe(3-Me) = Cc1cccc(C[C@H](N)C(=O)O)c1; Val(3-OH) = CC(C)(O)[C@H](N)C(=O)O; Cha = N[C@@H](CC1CCCCC1)C(=O)O; Thr(3ξ) = CC(O)[C@H](N)C(=O)O; Carboxymethyl = O=C(O)C*; Orn = NCCC[C@H](N)C(=O)O; Aun = NCCCCCCCCCCC(=O)O; Dab = NCC[C@H](N)C(=O)O; Dap = NC[C@H](N)C(=O)O; AEEA = NCCOCCOCC(=O)O; Piv = CC(C)(C)C(=O)*

target: T1, PD-1/PD-L1 interaction (PE-labeled human PD-L1-Ig binding to Jurkat cell line over-expressing human PD-1) (Homo sapiens, UniProt Q15116); assay: Jurkat-PD-1 Cell Binding High-Content Screening Assay (CBA); type: cell-based; details: Jurkat cell line over-expressing human PD-1; PE-labeled PD-L1-Ig 20 nM final; read-out: Jurkat hPD1-PDL1 IC50
T1 construct: expressed in transfected cells; host or cells: Jurkat
T1 sequence (Q15116 25-288): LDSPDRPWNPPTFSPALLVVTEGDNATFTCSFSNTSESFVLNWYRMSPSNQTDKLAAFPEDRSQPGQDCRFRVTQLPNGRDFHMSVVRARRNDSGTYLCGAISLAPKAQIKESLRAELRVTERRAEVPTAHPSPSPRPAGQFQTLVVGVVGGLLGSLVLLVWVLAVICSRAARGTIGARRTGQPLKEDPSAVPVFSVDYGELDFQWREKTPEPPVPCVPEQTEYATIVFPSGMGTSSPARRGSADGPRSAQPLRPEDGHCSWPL
Summary of the method: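 Binding of fluorescent PD-L1-Ig (20 nM final) to Jurkat-PD-1 cells was measured by automated imaging after 1 h, following a 2 h compound pre-treatment at 37° C.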

IC50 [nM]	Compound
71.3	CC(C)C[C@@H]1NC(=O)[C@H](Cc2c[nH]c3ccccc23)NC(=O)[C@H](CC(=O)O)NC(=O)[C@H](Cc2ccc(OCC(=O)O)cc2)NC(=O)[C@H](C(C)O)NC(=O)CSC[C@@H](C(=O)NCCOCCOCC(=O)NCCCCCCCCCCC(=O)O)NC(=O)[C@H](Cc2cnc[nH]2)NC(=O)[C@H](C(C)O)NC(=O)[C@H](CC2CCCCC2)NC(=O)[C@H](CCN)NC(=O)[C@@H](CC(C)C)NC(=O)[C@H](CCCN)NC(=O)[C@H](C(C)C)NC(=O)[C@H](Cc2ccc(-c3ccccc3)cc2)NC1=O (stereo partly drawn) [Compound 3691] ({CH2CO}-[Thr(3ξ)]Y(Carboxymethyl)DWL[Bip]V[Orn][dL][Dab][Cha][Thr(3ξ)]HC[AEEA][Aun]-OH; thioether N-14)
58.4	CC(C)C[C@@H]1NC(=O)[C@H](Cc2c[nH]c3ccccc23)NC(=O)[C@H](CC(=O)O)NC(=O)[C@H](Cc2ccc(OCC(=O)O)cc2)NC(=O)[C@H](CN)NC(=O)CSC[C@@H](C(=O)NCCOCCOCC(=O)NCCCCCCCCCCC(=O)O)NC(=O)[C@H](Cc2cnc[nH]2)NC(=O)[C@H](C(C)O)NC(=O)[C@H](CC2CCCCC2)NC(=O)[C@H](CCN)NC(=O)[C@@H](CC(C)C)NC(=O)[C@H](CCCN)NC(=O)[C@H](C(C)C)NC(=O)[C@H](Cc2ccc(-c3ccccc3)cc2)NC1=O (stereo partly drawn) [Compound 3692] ({CH2CO}-[Dap]Y(Carboxymethyl)DWL[Bip]V[Orn][dL][Dab][Cha][Thr(3ξ)]HC[AEEA][Aun]-OH; thioether N-14)
59.8	CC(C)C[C@@H]1NC(=O)[C@H](Cc2c[nH]c3ccccc23)NC(=O)[C@H](CC(=O)O)NC(=O)[C@H](Cc2ccc(OCC(=O)O)cc2)NC(=O)[C@H](CN)NC(=O)CSC[C@@H](C(=O)N[C@@H](CCN)C(=O)NCCCCCCCCCCC(=O)O)NC(=O)[C@H](CCCCN)NC(=O)[C@H](C(C)O)NC(=O)[C@H](CC2CCCCC2)NC(=O)[C@H](CCN)NC(=O)[C@@H](CC(C)C)NC(=O)[C@H](CCCN)NC(=O)[C@H](Cc2ccc(O)cc2)NC(=O)[C@H](Cc2ccc(-c3ccccc3)cc2)NC1=O (stereo partly drawn) [Compound 3693] ({CH2CO}-[Dap]Y(Carboxymethyl)DWL[Bip]Y[Orn][dL][Dab][Cha][Thr(3ξ)]KC[Dab][Aun]-OH; thioether N-14)
72.8	CC(C)C[C@@H]1NC(=O)[C@H](Cc2c[nH]c3ccccc23)NC(=O)[C@H](CC(=O)O)NC(=O)[C@H](Cc2ccc(OCC(=O)O)cc2)NC(=O)[C@H](C(C)O)NC(=O)CSC[C@@H](C(=O)N[C@@H](CCN)C(=O)NCCCCCCCCCCC(=O)O)NC(=O)[C@H](CCCCN)NC(=O)[C@H](C(C)O)NC(=O)[C@H](CC2CCCCC2)NC(=O)[C@H](CCN)NC(=O)[C@@H](CC(C)C)NC(=O)[C@H](CCCN)NC(=O)[C@H](Cc2ccc(O)cc2)NC(=O)[C@H](Cc2ccc(-c3ccccc3)cc2)NC1=O (stereo partly drawn) [Compound 3694] ({CH2CO}-[Thr(3ξ)]Y(Carboxymethyl)DWL[Bip]Y[Orn][dL][Dab][Cha][Thr(3ξ)]KC[Dab][Aun]-OH; thioether N-14)
629	CC(C)C[C@H]1NC(=O)[C@H](CCCN)NC(=O)[C@H](Cc2ccc(O)cc2)NC(=O)[C@H](Cc2ccc(-c3ccccc3)cc2)NC(=O)[C@H](Cc2ccc(O)cc2)NC(=O)[C@H](Cc2c[nH]c3ccccc23)NC(=O)[C@H](CC(=O)O)NC(=O)[C@H](Cc2ccc(OCC(=O)O)cc2)NC(=O)[C@H](C(C)O)NC(=O)CSC[C@@H](C(=O)N[C@@H](CCN)C(=O)NCCCCCCCCCCC(=O)O)NC(=O)[C@H](CN)NC(=O)[C@H](C(C)O)NC(=O)[C@H](CC2CCCCC2)NC(=O)[C@H](Cc2cnc[nH]2)NC1=O (stereo partly drawn) [Compound 3695] ({CH2CO}-[Thr(3ξ)]Y(Carboxymethyl)DWY[Bip]Y[Orn][dL]H[Cha][Thr(3ξ)][Dap]C[Dab][Aun]-OH; thioether N-14)
15.1	Cc1cccc(C[C@@H]2NC(=O)[C@H](CC(=O)O)NC(=O)[C@H](Cc3ccc(OCC(=O)O)cc3)NC(=O)[C@H](CN)NC(=O)CSC[C@@H](C(=O)N[C@@H](CCN)C(=O)NCCCCCCCCCCC(=O)O)NC(=O)[C@H](CO)NC(=O)[C@H](Cc3cnc[nH]3)NC(=O)[C@H](CC3CCCCC3)NC(=O)[C@H](CCN)NC(=O)[C@@H](CC(C)C)NC(=O)[C@H](CCCN)NC(=O)[C@H](Cc3ccc(OCC(=O)O)cc3)NC(=O)[C@H](Cc3ccc(-c4ccccc4)cc3)NC(=O)[C@H](Cc3ccc(OCC(=O)O)cc3)NC2=O)c1 [Compound 3696] ({CH2CO}-[Dap]Y(Carboxymethyl)D[Phe(3-Me)]Y(Carboxymethyl)[Bip]Y(Carboxymethyl)[Orn][dL][Dab][Cha]HSC[Dab][Aun]-OH; thioether N-14)
11.2	Cc1cccc(C[C@@H]2NC(=O)[C@H](CC(=O)O)NC(=O)[C@H](Cc3ccc(OCC(=O)O)cc3)NC(=O)[C@H](C(C)O)NC(=O)CSC[C@@H](C(=O)N[C@@H](CCN)C(=O)NCCCCCCCCCCC(=O)O)NC(=O)[C@H](CO)NC(=O)[C@H](Cc3cnc[nH]3)NC(=O)[C@H](CC3CCCCC3)NC(=O)[C@H](CCN)NC(=O)[C@@H](CC(C)C)NC(=O)[C@H](CCCN)NC(=O)[C@H](Cc3ccc(OCC(=O)O)cc3)NC(=O)[C@H](Cc3ccc(-c4ccccc4)cc3)NC(=O)[C@H](Cc3ccc(OCC(=O)O)cc3)NC2=O)c1 (stereo partly drawn) [Compound 3697] ({CH2CO}-[Thr(3ξ)]Y(Carboxymethyl)D[Phe(3-Me)]Y(Carboxymethyl)[Bip]Y(Carboxymethyl)[Orn][dL][Dab][Cha]HSC[Dab][Aun]-OH; thioether N-14)
15.6	Cc1cccc(C[C@@H]2NC(=O)[C@H](CC(=O)O)NC(=O)[C@H](Cc3ccc(OCC(=O)O)cc3)NC(=O)[C@H](CCN)NC(=O)CSC[C@@H](C(=O)N[C@@H](CCN)C(=O)NCCCCCCCCCCC(=O)O)NC(=O)[C@H](CO)NC(=O)[C@H](C(C)(C)O)NC(=O)[C@H](CC3CCCCC3)NC(=O)[C@H](CCN)NC(=O)[C@@H](CC(C)C)NC(=O)[C@H](CCCN)NC(=O)[C@H](Cc3ccc(C(N)=O)cc3)NC(=O)[C@H](Cc3ccc(-c4ccccc4)cc3)NC(=O)[C@H](Cc3ccc(C(N)=O)cc3)NC2=O)c1 [Compound 3698] ({CH2CO}-[Dab]Y(Carboxymethyl)D[Phe(3-Me)][Phe(4-CONH2)][Bip][Phe(4-CONH2)][Orn][dL][Dab][Cha][Val(3-OH)]SC[Dab][Aun]-OH; thioether N-14)
96.9	CC(C)C[C@H]1NC(=O)[C@H](CCCN)NC(=O)[C@H](Cc2ccc(O)cc2)NC(=O)[C@H](Cc2ccc(-c3ccccc3)cc2)NC(=O)[C@H](CCCCNC(=O)C(C)(C)C)NC(=O)[C@H](Cc2c[nH]c3ccccc23)NC(=O)[C@H](CC(=O)O)NC(=O)[C@H](Cc2ccc(OCC(=O)O)cc2)NC(=O)[C@H](C(C)O)NC(=O)CSC[C@@H](C(=O)NCCOCCOCC(=O)NCCCCCCCCCCC(=O)O)NC(=O)[C@H](CO)NC(=O)[C@H](Cc2cnc[nH]2)NC(=O)[C@H](CC2CCCCC2)NC(=O)[C@H](CCN)NC1=O (stereo partly drawn) [Compound 3699] ({CH2CO}-[Thr(3ξ)]Y(Carboxymethyl)DWK(Piv)[Bip]Y[Orn][dL][Dab][Cha]HSC[AEEA][Aun]-OH; thioether N-14)
56.7	CC(C)C[C@@H]1NC(=O)[C@H](Cc2c[nH]c3ccccc23)NC(=O)[C@H](CC(=O)O)NC(=O)[C@H](Cc2ccc(OCC(=O)O)cc2)NC(=O)[C@H](CCN)NC(=O)CSC[C@@H](C(=O)NCCOCCOCC(=O)NCCCCCCCCCCC(=O)O)NC(=O)[C@H](C(C)O)NC(=O)[C@H](C(C)C)NC(=O)[C@H](CC2CCCCC2)NC(=O)[C@H](Cc2cnc[nH]2)NC(=O)[C@@H](CC(C)C)NC(=O)[C@H](CCCN)NC(=O)[C@H](C(C)C)NC(=O)[C@H](Cc2ccc(-c3ccccc3)cc2)NC1=O (stereo partly drawn) [Compound 3700] ({CH2CO}-[Dab]Y(Carboxymethyl)DWL[Bip]V[Orn][dL]H[Cha]V[Thr(3ξ)]C[AEEA][Aun]-OH; thioether N-14)
92.2	CC(C)C[C@@H]1NC(=O)[C@H](Cc2c[nH]c3ccccc23)NC(=O)[C@H](CC(=O)O)NC(=O)[C@H](Cc2ccc(OCC(=O)O)cc2)NC(=O)[C@H](CCN)NC(=O)CSC[C@@H](C(=O)NCCOCCOCC(=O)NCCCCCCCCCCC(=O)O)NC(=O)[C@H](CO)NC(=O)[C@H](C(C)C)NC(=O)[C@H](CC2CCCCC2)NC(=O)[C@H](Cc2cnc[nH]2)NC(=O)[C@@H](CC(C)C)NC(=O)[C@H](CCCN)NC(=O)[C@H](C(C)C)NC(=O)[C@H](Cc2ccc(-c3ccccc3)cc2)NC1=O [Compound 3701] ({CH2CO}-[Dab]Y(Carboxymethyl)DWL[Bip]V[Orn][dL]H[Cha]VSC[AEEA][Aun]-OH; thioether N-14)
23.4	Cc1cccc(C[C@@H]2NC(=O)[C@H](CC(=O)O)NC(=O)[C@H](Cc3ccc(OCC(=O)O)cc3)NC(=O)[C@H](C(C)O)NC(=O)CSC[C@@H](C(=O)NCCOCCOCC(=O)NCCCCCCCCCCC(=O)O)NC(=O)[C@H](Cc3cnc[nH]3)NC(=O)[C@H](C(C)O)NC(=O)[C@H](CC3CCCCC3)NC(=O)[C@H](CCN)NC(=O)[C@@H](CC(C)C)NC(=O)[C@H](CCCN)NC(=O)[C@H](C(C)C)NC(=O)[C@H](Cc3ccc(-c4ccccc4)cc3)NC(=O)[C@H](C(C)C)NC2=O)c1 (stereo partly drawn) [Compound 3703] ({CH2CO}-[Thr(3ξ)]Y(Carboxymethyl)D[Phe(3-Me)]V[Bip]V[Orn][dL][Dab][Cha][Thr(3ξ)]HC[AEEA][Aun]-OH; thioether N-14)
21.9	Cc1cccc(C[C@@H]2NC(=O)[C@H](CC(=O)O)NC(=O)[C@H](Cc3ccc(OCC(=O)O)cc3)NC(=O)[C@H](C(C)O)NC(=O)CSC[C@@H](C(=O)N[C@@H](CCN)C(=O)NCCCCCCCCCCC(=O)O)NC(=O)[C@H](CO)NC(=O)[C@H](Cc3cnc[nH]3)NC(=O)[C@H](CC3CCCCC3)NC(=O)[C@H](CCN)NC(=O)[C@@H](CC(C)C)NC(=O)[C@H](CCCN)NC(=O)[C@H](Cc3ccc(OCC(=O)O)cc3)NC(=O)[C@H](Cc3ccc(-c4ccccc4)cc3)NC(=O)[C@H](Cc3ccc(C(=O)O)cc3)NC2=O)c1 (stereo partly drawn) [Compound 3704] ({CH2CO}-[Thr(3ξ)]Y(Carboxymethyl)D[Phe(3-Me)][Phe(4-COOH)][Bip]Y(Carboxymethyl)[Orn][dL][Dab][Cha]HSC[Dab][Aun]-OH; thioether N-14)
